Data from patent US8691859B2 (priority 2005, dated 2014).
Converted amounts (≈) assume the structure as drawn.

What was measured:
[1] = tested on: B. anthracis GFP sterne vegetative cells; assay: microbe, parasite or virus in culture; type: cell-based; settings: for MIC: Bacillus anthracis, read-out: MIC B. anthracis vegetative cells
anthrax lethal factor = anthrax lethal factor (Bacillus anthracis, UniProt P15917); type: biochemical
[2] = tested on: B. anthracis GFP sterne spores; assay: microbe, parasite or virus in culture; type: cell-based; settings: for MIC: Bacillus anthracis, read-out: MIC B. anthracis spores

Chain of anthrax lethal factor (P15917 34-809 limits assumed): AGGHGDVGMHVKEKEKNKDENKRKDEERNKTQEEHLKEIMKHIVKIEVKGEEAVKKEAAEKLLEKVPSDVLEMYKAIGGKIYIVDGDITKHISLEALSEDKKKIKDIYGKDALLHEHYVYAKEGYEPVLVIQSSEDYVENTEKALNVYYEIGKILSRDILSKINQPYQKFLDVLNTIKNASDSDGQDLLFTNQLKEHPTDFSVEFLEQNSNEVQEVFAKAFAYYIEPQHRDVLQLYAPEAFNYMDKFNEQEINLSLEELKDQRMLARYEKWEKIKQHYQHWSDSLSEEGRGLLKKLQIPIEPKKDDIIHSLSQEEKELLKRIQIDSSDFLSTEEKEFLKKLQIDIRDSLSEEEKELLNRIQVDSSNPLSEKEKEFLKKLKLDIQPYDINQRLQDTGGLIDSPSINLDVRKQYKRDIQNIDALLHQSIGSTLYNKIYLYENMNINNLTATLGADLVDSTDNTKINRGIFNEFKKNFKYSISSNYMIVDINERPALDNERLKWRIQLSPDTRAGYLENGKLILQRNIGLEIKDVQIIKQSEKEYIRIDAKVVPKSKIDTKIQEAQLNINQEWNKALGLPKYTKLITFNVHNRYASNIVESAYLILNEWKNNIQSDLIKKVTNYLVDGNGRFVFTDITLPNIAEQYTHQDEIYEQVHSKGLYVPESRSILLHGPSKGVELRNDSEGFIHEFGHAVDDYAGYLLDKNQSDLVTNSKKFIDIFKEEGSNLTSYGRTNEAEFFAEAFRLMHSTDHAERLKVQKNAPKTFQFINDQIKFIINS

| Structure (SMILES) | MIC [1] | inhibition of the protease activity of anthrax lethal factor (anthrax lethal factor) | MIC [2] | MIC B. anthracis spores [2] | MIC B. anthracis vegetative cells [1] |
| --- | --- | --- | --- | --- | --- |
| N=C(N)c1ccc(/C=C/C=C/c2cc3cc(C(=N)N)ccc3o2)cc1 [NSC 308572, 2-[(1E,3E)-4-(4-carbamimidoylphenyl)buta-1,3-dienyl]benzofuran-5-carboximidamide] | 16.1 µg/mL (≈ 48.8 µM) | inhibit | 8.06 µg/mL (≈ 24.4 µM) | – | – |
| C(=C\c1cc2ccc(C3=NCCN3)cc2o1)/c1cc2cc(C3=NCCN3)ccc2[nH]1 [NSC 294204, 5-(4,5-dihydro-1H-imidazol-2-yl)-2-[(E)-2-[6-(4,5-dihydro-1H-imidazol-2-yl)benzofuran-2-yl]ethenyl]-1H-indole] | > 18.7 µg/mL | inhibit | 18.7 µg/mL (≈ 47.3 µM) | – | – |
| C(/C=C/c1cc2cc(C3=NCCN3)ccc2o1)=C\c1cc2cc(C3=NCCN3)ccc2o1 [NSC 308571, 2-[2-[(1E,3E)-4-[5-(4,5-dihydro-1H-imidazol-2-yl)benzofuran-2-yl]buta-1,3-dienyl]benzofuran-5-yl]-4,5-dihydro-1H-imidazole] | 19.8 µg/mL (≈ 46.9 µM) | inhibit | 9.9 µg/mL (≈ 23.4 µM) | – | – |
| N=C(N)c1ccc2oc(/C=C/C=C/c3cc4cc(C(=N)N)ccc4o3)cc2c1 [NSC 300511, 2-[(1E,3E)-4-(5-carbamimidoylbenzofuran-2-yl)buta-1,3-dienyl]benzofuran-5-carboximidamide] | 17.7 µg/mL (≈ 47.8 µM) | inhibit | 2.21 µg/mL (≈ 5.98 µM) | – | – |
| c1cc(-c2[nH]c3cc(C4=NCCN4)ccc3c2-c2cc3ccc(C4=NCCN4)cc3[nH]2)ccc1C1=NCCN1 [NSC 341911, 6-(4,5-dihydro-1H-imidazol-2-yl)-3-[6-(4,5-dihydro-1H-imidazol-2-yl)-1H-indol-2-yl]-2-[4-(4,5-dihydro-1H-imidazol-2-yl)phenyl]-1H-indole] | 24.9 µg/mL (≈ 48.5 µM) | inhibit | – | 24.88 µg/mL (≈ 48.5 µM) | – |
| N=C(N)c1ccc2oc(CCc3cc4ccc(C(=N)N)cc4[nH]3)cc2c1 [NSC 290109, 2-[2-(5-carbamimidoylbenzofuran-2-yl)ethyl]-1H-indole-6-carboximidamide] | 8.36 µg/mL (≈ 24.2 µM) | inhibit | 8.36 µg/mL (≈ 24.2 µM) | – | – |
| C(=C\c1cc2ccc(C3=NCCN3)cc2[nH]1)/c1ccc2cc(C3=NCCN3)[nH]c2c1 [NSC 341907, 6-(4,5-dihydro-1H-imidazol-2-yl)-2-[(E)-2-[2-(4,5-dihydro-1H-imidazol-2-yl)-1H-indol-6-yl]ethenyl]-1H-indole] | 18.7 µg/mL (≈ 47.4 µM) | inhibit | 9.34 µg/mL (≈ 23.7 µM) | – | – |
| N=C(N)c1ccc2cc(/C=C/c3cc4ccc(C(=N)N)cc4o3)[nH]c2c1 [NSC 294200, 2-[(E)-2-(6-carbamimidoylbenzofuran-2-yl)ethenyl]-1H-indole-6-carboximidamide] | 4.16 µg/mL (≈ 12.1 µM) | inhibit | 2.08 µg/mL (≈ 6.06 µM) | – | – |
| C(=C\c1cc2cc(C3=NCCN3)ccc2[nH]1)/c1ccc(C2=NCCN2)cc1 [NSC 317885, 5-(4,5-dihydro-1H-imidazol-2-yl)-2-[(E)-2-[4-(4,5-dihydro-1H-imidazol-2-yl)phenyl]ethenyl]-1H-indole] | > 17.1 µg/mL | inhibit | > 17.1 µg/mL | – | – |
| N=C(N)c1ccc(/C=C/c2cc3ccc(C(=N)N)cc3[nH]2)cc1 [NSC 317886, 2-[(E)-2-(4-carbamimidoylphenyl)ethenyl]-1H-indole-6-carboximidamide] | 15 µg/mL (≈ 49.5 µM) | inhibit | 7.52 µg/mL (≈ 24.8 µM) | – | – |
| C(=C\c1cc2ccc(C3=NCCN3)cc2[nH]1)/c1ccc(C2=NCCN2)cc1 [NSC 317887, 6-(4,5-dihydro-1H-imidazol-2-yl)-2-[(E)-2-[4-(4,5-dihydro-1H-imidazol-2-yl)phenyl]ethenyl]-1H-indole] | > 17.1 µg/mL | inhibit | 8.56 µg/mL (≈ 24.1 µM) | – | – |
| C/C(=C\c1cc2cc(C(=N)N)ccc2o1)c1cc2cc(C(=N)N)ccc2o1 [NSC 266476, 2-[(E)-1-(5-carbamimidoylbenzofuran-2-yl)prop-1-en-2-yl]benzofuran-5-carboximidamide] | > 17.2 µg/mL | inhibit | > 17.2 µg/mL | – | – |
| N=C(N)c1ccc2oc(/C=C/c3cc4ccc(C(=N)N)cc4o3)cc2c1 [NSC 294202, 2-[(E)-2-(5-carbamimidoylbenzofuran-2-yl)ethenyl]benzofuran-6-carboximidamide] | > 16.7 µg/mL | – | > 16.7 µg/mL | – | – |
| C(=C\c1cc2ccc(C3=NCCN3)cc2o1)/c1cc2ccc(C3=NCCN3)cc2[nH]1 [NSC 294201, 6-(4,5-dihydro-1H-imidazol-2-yl)-2-[(E)-2-[6-(4,5-dihydro-1H-imidazol-2-yl)benzofuran-2-yl]ethenyl]-1H-indole] | 18.7 µg/mL (≈ 47.3 µM) | inhibit | 4.68 µg/mL (≈ 11.8 µM) | – | – |
| O=C(Nc1ccc(C2=NCCN2)cc1)c1cc2cc(C3=NCCN3)ccc2o1 [NSC 290111, 5-(4,5-dihydro-1H-imidazol-2-yl)-N-[4-(4,5-dihydro-1H-imidazol-2-yl)phenyl]benzofuran-2-carboxamide] | > 17.8 µg/mL | – | 17.8 µg/mL (≈ 47.8 µM) | – | – |
| N=C(N)c1ccc(-c2[nH]c3cc(C(=N)N)ccc3c2N)cc1 [NSC 300509, 3-amino-2-(4-carbamimidoylphenyl)-1H-indole-6-carboximidamide] | > 14.6 µg/mL | – | > 14.6 µg/mL | – | – |
| NC(N)=Nc1ccc(-c2cc3cc(N=C(N)N)ccc3s2)cc1 [NSC 341910, 2-[2-[4-(diaminomethylideneamino)phenyl]benzothiophen-5-yl]guanidine] | > 15.9 µg/mL | – | 15.9 µg/mL (≈ 48.9 µM) | – | – |
| N=C(N)c1ccc2cc(/C=C/c3cc4ccc(C(=N)N)cc4o3)oc2c1 [NSC 294199, 2-[(E)-2-(6-carbamimidoylbenzofuran-2-yl)ethenyl]benzofuran-6-carboximidamide] | 16.7 µg/mL (≈ 48.4 µM) | – | 8.34 µg/mL (≈ 24.2 µM) | – | – |
| N=C(N)c1ccc(-c2cc3cc(C(=N)N)ccc3s2)cc1 [NSC 240891, 2-(4-carbamimidoylphenyl)benzothiophene-5-carboximidamide] | > 14.7 µg/mL | – | > 14.7 µg/mL | – | – |
| N=C(N)c1ccc2nc(/C=C/c3nc4ccc(C(=N)N)cc4[nH]3)[nH]c2c1 [NSC 266475, 2-[(E)-2-(5-carbamimidoyl-3H-benzoimidazol-2-yl)ethenyl]-3H-benzoimidazole-5-carboximidamide] | > 16.7 µg/mL | – | > 16.7 µg/mL | – | – |
| c1cc(-c2[nH]c3cc(C4=NCCN4)ccc3c2-c2cc3ccc(C4=NCCN4)cc3[nH]2)ccc1C1=NCCN1 [NSC 352341, 6-(4,5-dihydro-1H-imidazol-2-yl)-3-[6-(4,5-dihydro-1H-imidazol-2-yl)-1H-indol-2-yl]-2-[4-(4,5-dihydro-1H-imidazol-2-yl)phenyl]-1H-indole] | – | – | – | 6.82 µg/mL (≈ 13.3 µM) | 13.64 µg/mL (≈ 26.6 µM) |
| Cc1c(/C=C/c2oc3ccc(C(=N)N)cc3c2C)oc2ccc(C(=N)N)cc12 [NSC 266474, 2-[(E)-2-(5-carbamimidoyl-3-methyl-benzofuran-2-yl)ethenyl]-3-methyl-benzofuran-5-carboximidamide] | > 17.8 µg/mL | inhibit | > 17.8 µg/mL | – | – |
| N=C(N)c1ccc(/C=C/c2cc3cc(C(=N)N)ccc3[nH]2)cc1 [NSC 317884, 2-[(E)-2-(4-carbamimidoylphenyl)ethenyl]-1H-indole-5-carboximidamide] | > 15 µg/mL | inhibit | 15 µg/mL (≈ 49.6 µM) | – | – |
| O=C(Nc1ccc(C2=NCCN2)cc1)c1cc2ccc(C3=NCCN3)cc2[nH]1 [NSC 294206, 6-(4,5-dihydro-1H-imidazol-2-yl)-N-[4-(4,5-dihydro-1H-imidazol-2-yl)phenyl]-1H-indole-2-carboxamide] | 17.8 µg/mL (≈ 47.8 µM) | inhibit | 8.9 µg/mL (≈ 23.9 µM) | – | – |
| N=C(N)c1ccc2[nH]c(/C=C/c3cc4cc(C(=N)N)ccc4o3)cc2c1 [NSC 290107, 2-[(E)-2-(5-carbamimidoylbenzofuran-2-yl)ethenyl]-1H-indole-5-carboximidamide] | > 16.6 µg/mL | inhibit | 8.32 µg/mL (≈ 24.2 µM) | – | – |
| N=C(N)c1ccc(-c2nc3ccc(C(=N)N)cc3[nH]2)cc1 [NSC 240894, 2-(4-carbamimidoylphenyl)-3H-benzoimidazole-5-carboximidamide] | > 14 µg/mL | – | > 14 µg/mL | – | – |
| N=C(N)c1ccc2oc(/C=C/c3cc4cc(C(=N)N)ccc4s3)cc2c1 [NSC 266472, 2-[(E)-2-(5-carbamimidoylbenzothiophen-2-yl)ethenyl]benzofuran-5-carboximidamide] | 17.3 µg/mL (≈ 48.1 µM) | – | 8.66 µg/mL (≈ 24 µM) | – | – |
| N=C(N)c1ccc2[nH]c(/C=C/c3cc4ccc(C(=N)N)cc4o3)cc2c1 [NSC 294203, 2-[(E)-2-(6-carbamimidoylbenzofuran-2-yl)ethenyl]-1H-indole-5-carboximidamide] | > 16.6 µg/mL | inhibit | 16.6 µg/mL (≈ 48.5 µM) | – | – |
| C(=C\c1cc2cc(C3=NCCN3)ccc2o1)/c1cc2cc(C3=NCCN3)ccc2[nH]1 [NSC 290108, 5-(4,5-dihydro-1H-imidazol-2-yl)-2-[(E)-2-[5-(4,5-dihydro-1H-imidazol-2-yl)benzofuran-2-yl]ethenyl]-1H-indole] | > 18.5 µg/mL | inhibit | 18.5 µg/mL (≈ 46.7 µM) | – | – |
